Patent publication US5158958A, “Imidazo[4,5-b]quinolinyl oxy alkyl sulfonyl piperidine derivatives” (Bristol-Myers Squibb Company, priority 1992, dated 1992)
Structures can show the parent of a compound that is named as a salt.

Assay: Aqueous solubility
Type: physicochemical
Details: water, compounds prepared as dihydrochloride salts
O=S(=O)(CCCOc1ccc2[nH]c3nc(O)nc-3cc2c1)C1CCNCC1 [Cmpd 17a, 4-[[3-[[(2-,3-Dihydro-2-oxo-1H-imidazo[4,5-b]guinolin7-yl)oxy]propylsulfonyl]piperidinedihydrochloride] gave a solubility of over 10000 µg/mL. With O=S(=O)(CCCOc1ccc2[nH]c3nc(O)nc-3cc2c1)C1CCN(Cc2ccc(F)cc2)CC1 [Cmpd 17c, 4-[[3-[2,3-Dihydro-2-oxo1H-imidazo[4,5-b]quinolin-7piperidinedihydrochloride] the solubility was over 10000 µg/mL. O=S(=O)(CCCCOc1ccc2[nH]c3nc(O)nc-3cc2c1)C1CCN(Cc2ccc(F)cc2)CC1 [l8c, dihydrochloride] gave a solubility of about 2000 µg/mL. O=S(=O)(CCCOc1ccc2[nH]c3nc(O)nc-3cc2c1)C1CCN(Cc2ccccc2)CC1 [Cmpd 17b, 4-[[3-[2,3-Dihydro-2-oxy-1H-imidazo[4,5-b]quinolin-7-yloxy]propyl]sulfonyl]-1-(phenylmethyl)piperidine dihydrochloride] showed a solubility of over 10000 µg/mL. With O=S(=O)(CCCOc1ccc2[nH]c3nc(O)nc-3cc2c1)C1CCN(CCc2ccccc2)CC1 [Cmpd 17h, 4-[[3-[2,3-Dihydro-2-oxo-1H-imidazo[4,5-b]quinolin-7-yl-oxy]propyl]sulfonyl]-b 1-(2-phenylethyl)piperidine dihydrochloride] the solubility was under 5000 µg/mL. For O=S(=O)(CCCOc1ccc2[nH]c3nc(O)nc-3cc2c1)C1CCN(Cc2cccc(C(F)(F)F)c2)CC1 [Cmpd 17i, 4-[3-[2,3-Dihydro-2-oxo1H-imidazo[4,5-b]quinolin-7-yl-oxy]propyl]sulfony]1-[(3-trifluoromethylhenvlmethyphenylmethyl]piperidine dihydrochloride], the solubility was under 5000 µg/mL. For O=S(=O)(CCCOc1ccc2[nH]c3nc(O)nc-3cc2c1)C1CCN(CC2CCCCO2)CC1 (stereo not drawn) [Cmpd 17k, 4[[2,3-Dihydro-2-oxo-1H-imidazo[4,5-b]quinolin-7-yl-pxy]propyl]sulfonyl]-1-[(tetrahydro-2H-pyran-2-yl)piperidine dihydrochloride], the solubility was over 10000 µg/mL. With O=S(=O)(CCCCOc1ccc2[nH]c3nc(O)nc-3cc2c1)C1CCN(CC2CCCCC2)CC1 [Cmpd 18d, 1-(Cyclohexylmethyl)-4-[[3-[2,3-Dihydro-2-oxo-1H-imidaxo [4,5-b]quinolin-7-yloxy]butylsulfonylpiperidinedihydrochloride] the solubility was about 2000 µg/mL. O=S(=O)(CCCOc1ccc2[nH]c3nc(O)nc-3cc2c1)C1CCN(CCC2CCCCC2)CC1 [Cmpd 17g, 1-(2-Cyclohexylethyl)-4-[[(3-[(2,3-dihydro-2-oxo-1H-imidazo[4,5-b]quinolin-7-yloxy]propyl]sulfonyl]piperidinedihydrochloride] gave a solubility of under 5000 µg/mL. Work on CC(C)CN1CCC(S(=O)(=O)CCCOc2ccc3[nH]c4nc(O)nc-4cc3c2)CC1 [Cmpd 17f, 4[[3-[2,3-Dihydro-2-oxo-1H-imidazo[4.5-b]quinolin-7yloxy]propyl]sulfonyll-1-(2-methylpropyl)piperidinedihydrochloride] yielded a solubility of over 10000 µg/mL. CCC(CC)CN1CCC(S(=O)(=O)CCCCOc2ccc3[nH]c4nc(O)nc-4cc3c2)CC1 [l8e, 4[[3-[2,3-Dihydro-2-oxo-1H-imidazo[4.5-b]qouinolin-7-yloxy]butylsulfonyl]-1-(2-ethylbut-1-yl)piperidinedihydrochloride] gave a solubility of about 5000 µg/mL. CCC(CC)CN1CCC(S(=O)(=O)CCCOc2ccc3nc4[nH]c(=O)[nH]c4cc3c2)CC1.Cl.Cl [Cmpd 17e, 4-[[3-[2,3-Dihydro-2-oxo-1H-imidazo[4,5-b]quinolin-7yl-oxy]propyl]sulfonyl]1-(2-ethylbut-1yl)piperidine dihydrochloride] showed a solubility of under 10000 µg/mL. O=S(=O)(CCCCOc1ccc2[nH]c3nc(O)nc-3cc2c1)C1CCNCC1 [Cmpd 18a, 4-[[2,3-Dihydro-2-oxo-1H-imidazo[4,5-b]quinolin-7-yloxy]butyl]sulfonyl]piperidine dihydrochloride] gave a solubility of over 10000 µg/mL. For O=S(=O)(CCCOc1ccc2[nH]c3nc(O)nc-3cc2c1)C1CCN(CC2CCCCC2)CC1 [Cmpd 17d, 4-[[3-[2,3-Dihydro-2-oxo-1H-imidazo[4,5-b]quinolin-7-yl-oxy]propyl]sulfonyl]-(cyclohexylmethyl)piperidine dihydrochloride], the solubility was under 10000 µg/mL. With O=S(=O)(CCCCOc1ccc2[nH]c3nc(O)nc-3cc2c1)C1CCN(Cc2ccccc2)CC1 [Cmpd 18b, 4[[3-[2,3-Dihydro-2-oxo-1H-imidazo[4,5-b]quinolin-7-yloxyl]butylsulfonyl]-1-(phenylmethyl)piperidinedihydrochloride] the solubility was about 5000 µg/mL.
